Measurements as given in the NIST ThermoML archive (doi:10.1016/j.fluid.2007.07.016).

Assay: xn = mol fraction of the nth substance listed
Conditions: 101 kPa, Liquid; for viscosity: Capillary tube (Ostwald / Ubbelohde) method; for speed of sound: Linear variable-path acoustic interferometer

Cc1ccccc1C [1,2-dimethylbenzene] + C1CCOC1
Conditions | speed of sound, 288.15 K [m/s] | speed of sound, 298.15 K [m/s] | speed of sound, 308.15 K [m/s] | speed of sound, 318.15 K [m/s] | viscosity, 288.15 K [mPa·s] | viscosity, 298.15 K [mPa·s] | viscosity, 308.15 K [mPa·s] | viscosity, 318.15 K [mPa·s]
x2 = 0 | 1388.5 | 1350.3 | 1321.4 | 1285.8 | 0.8623 | 0.7576 | 0.669 | 0.5972
x2 = 0.0764 | 1384.3 | 1345.1 | 1314.5 | 1277.9 | 0.8385 | 0.738 | 0.6535 | 0.585
x2 = 0.1504 | 1380 | 1340 | 1307.8 | 1270.2 | 0.8155 | 0.7192 | 0.6384 | 0.573
x2 = 0.2243 | 1375.7 | 1335 | 1301.1 | 1262.7 | 0.7919 | 0.6998 | 0.6226 | 0.5602
x2 = 0.2942 | 1371.4 | 1330 | 1294.8 | 1255.6 | 0.769 | 0.6807 | 0.6067 | 0.5471
x2 = 0.366 | 1366.9 | 1324.9 | 1288.3 | 1248.4 | 0.7451 | 0.6606 | 0.59 | 0.5331
x2 = 0.4226 | 1363.4 | 1320.9 | 1283.2 | 1242.8 | 0.726 | 0.6445 | 0.5764 | 0.5216
x2 = 0.4801 | 1359.7 | 1316.7 | 1278 | 1237.1 | 0.7063 | 0.6277 | 0.5621 | 0.5094
x2 = 0.531 | 1356.3 | 1313 | 1273.4 | 1232.1 | 0.6888 | 0.6127 | 0.5493 | 0.4981
x2 = 0.585 | 1352.6 | 1309 | 1268.5 | 1226.8 | 0.6694 | 0.5959 | 0.5348 | 0.4856
x2 = 0.6578 | 1347.6 | 1303.6 | 1262 | 1219.7 | 0.6432 | 0.5731 | 0.515 | 0.4684
x2 = 0.7322 | 1342.5 | 1298 | 1255.4 | 1212.5 | 0.6159 | 0.5493 | 0.4941 | 0.4498
x2 = 0.8049 | 1337.4 | 1292.5 | 1248.9 | 1205.6 | 0.5887 | 0.5253 | 0.4729 | 0.431
x2 = 0.8708 | 1332.6 | 1287.5 | 1243 | 1199.3 | 0.5635 | 0.503 | 0.453 | 0.413
x2 = 0.9392 | 1327.7 | 1282.3 | 1236.9 | 1192.9 | 0.537 | 0.4794 | 0.4319 | 0.394

Cc1cc(C)cc(C)c1 [1,3,5-trimethylbenzene] + C1CCOC1
Conditions | speed of sound, 288.15 K [m/s] | speed of sound, 298.15 K [m/s] | speed of sound, 308.15 K [m/s] | speed of sound, 318.15 K [m/s] | viscosity, 288.15 K [mPa·s] | viscosity, 298.15 K [mPa·s] | viscosity, 308.15 K [mPa·s] | viscosity, 318.15 K [mPa·s]
x2 = 0 | 1412.3 | 1369.8 | 1325.2 | 1279 | 0.7592 | 0.6572 | 0.5792 | 0.5066
x2 = 0.0735 | 1406.8 | 1363.6 | 1318.5 | 1272.2 | 0.7428 | 0.6449 | 0.5698 | 0.5004
x2 = 0.1513 | 1400.3 | 1356.6 | 1311.2 | 1264.9 | 0.7259 | 0.6321 | 0.5602 | 0.4943
x2 = 0.2274 | 1393.5 | 1349.5 | 1303.9 | 1257.7 | 0.7089 | 0.6192 | 0.5502 | 0.4875
x2 = 0.2986 | 1386.7 | 1342.4 | 1296.7 | 1250.6 | 0.6927 | 0.6066 | 0.5402 | 0.4805
x2 = 0.3672 | 1379.7 | 1335.3 | 1289.6 | 1243.6 | 0.6767 | 0.594 | 0.5301 | 0.4732
x2 = 0.4305 | 1373.5 | 1328.9 | 1283.1 | 1237.3 | 0.6616 | 0.5821 | 0.5203 | 0.4658
x2 = 0.4912 | 1367.5 | 1322.9 | 1277 | 1231.5 | 0.647 | 0.5703 | 0.5106 | 0.4583
x2 = 0.5496 | 1361.9 | 1317.3 | 1271.4 | 1226 | 0.6326 | 0.5586 | 0.5008 | 0.4507
x2 = 0.6055 | 1356.8 | 1312 | 1266.1 | 1220.8 | 0.6186 | 0.5472 | 0.4911 | 0.4429
x2 = 0.6784 | 1350.4 | 1305.4 | 1259.4 | 1214.4 | 0.6 | 0.5318 | 0.4779 | 0.4322
x2 = 0.7516 | 1344 | 1298.8 | 1252.8 | 1207.9 | 0.5809 | 0.5159 | 0.4642 | 0.4208
x2 = 0.828 | 1337.4 | 1292.1 | 1246 | 1201.2 | 0.5609 | 0.499 | 0.4494 | 0.4084
x2 = 0.879 | 1333.2 | 1287.7 | 1241.6 | 1196.9 | 0.5469 | 0.4872 | 0.4388 | 0.3992
x2 = 0.9412 | 1328.2 | 1282.6 | 1236.4 | 1191.8 | 0.5299 | 0.4726 | 0.4258 | 0.3879
